Measured values published in patent US20140045890A1, “NOVEL COMPOUNDS” (SYNGENTA PARTICIPATIONS AG, priority 2011, published 2014).

Legend:
[1] = system: Phaeosphaeria nodorum (Septoria nodorum); test: Phaeosphaeria nodorum (Septoria nodorum) / wheat / leaf disc preventative (glume blotch); assay type: in vivo; settings: Parastagonospora nodorum, foliar, wheat leaf segments cv. Kanzler, inoculated 2 days after application, assessed 5-7 days after application, read-out: inhibit fungal infestation (percent disease control compared to untreated)
Plasmopara viticola = Plasmopara viticola / grape / leaf disc preventative; assay type: in vivo; settings: foliar, grape vine leaf disks, inoculated 1 day after application, assessed 6-8 days after application, read-out: inhibit fungal infestation (percent disease control compared to untreated)
Pythium ultimum = Pythium ultimum / liquid culture (seedling damping off); assay type: cell-based; settings: Globisporangium ultimum, liquid culture in PDB, 24° C., 2-3 days after application, read-out: inhibit fungal infestation (inhibition of growth determined photometrically)
Phytophthora infestans = test: whole plant or invertebrate; assay type: in vivo; settings: in Solanum lycopersicum, foliar, read-out: inhibit fungal infestation (percent disease control compared to untreated)
[2] = system: Blumeria qraminis f. sp. tritici (Erysiphe qraminis f. sp. tritici); test: Blumeria graminis f. sp. tritici / wheat / leaf disc preventative (powdery mildew on wheat); assay type: in vivo; settings: foliar, wheat leaf segments cv. Kanzler, inoculated 1 day after application, assessed 6-8 days after application, read-out: inhibit fungal infestation (percent disease control compared to untreated)

Row | SMILES | inhibition at 200 ppm [1] [%] | inhibition at 200 ppm (Plasmopara viticola) [%] | inhibition at 200 ppm (Pythium ultimum) [%] | inhibition at 200 ppm (Phytophthora infestans) [%] | inhibition at 200 ppm [2] [%] | melting point [°C]
1 | CSC(Oc1ccc2ncc(Br)cc2c1)C(=O)NC(C)(C)c1ccccn1 (stereo not drawn) [Compound 8] | ≥ 80 | ≥ 80 | ≥ 80 | ≥ 80 | ≥ 80 | 105
2 | CSC(Oc1cc(C)c2ncc(Br)cc2c1)C(=O)NC(C)(C)c1ccccn1 (stereo not drawn) [Compound 9] | ≥ 80 | ≥ 80 | ≥ 80 | ≥ 80 | ≥ 80 | 123
3 | C#Cc1cnc2c(Cl)cc(OC(SC)C(=O)NC(C)(C)c3ccccn3)cc2c1 (stereo not drawn) [Compound 10] | ≥ 80 | ≥ 80 | ≥ 80 | ≥ 80 | ≥ 80 | 153
4 | C#Cc1cnc2c(F)cc(OC(SC)C(=O)NC(C)(C)c3ccccn3)cc2c1 (stereo not drawn) [Compound 11] | ≥ 80 | ≥ 80 | ≥ 80 | ≥ 80 | ≥ 80 | 125
5 | C#Cc1cnc2c(Cl)cc(OC(OC)C(=O)NC(C)(C)c3ccccn3)cc2c1 (stereo not drawn) [Compound 12] | ≥ 80 | ≥ 80 | ≥ 80 | ≥ 80 | ≥ 80 | 108
6 | C#Cc1cnc2ccc(OC(CC)C(=O)NC(C)(C)c3ccccn3)cc2c1 (stereo not drawn) [Compound 13] | ≥ 80 | ≥ 80 | ≥ 80 | ≥ 80 | ≥ 80 | 96
7 | C#Cc1cnc2ccc(OC(SC)C(=O)NC(C)(C)c3cccc(C)n3)cc2c1 (stereo not drawn) [Compound 15] | ≥ 80 | ≥ 80 | ≥ 80 | ≥ 80 | ≥ 80 | 148
8 | C#Cc1cnc2ccc(OC(SC)C(=O)NC(C)(C)c3cc(C)ccn3)cc2c1 (stereo not drawn) [Compound 18, 2-[(3-ethynyl-6-quinolyl)oxy]-N-[1-methyl-1-(4-methyl-2-pyridyl)ethyl]-2-methylsulfanyl-acetamide] | ≥ 80 | ≥ 80 | ≥ 80 | ≥ 80 | ≥ 80 | 63
9 | C#Cc1cnc2ccc(OC(SC)C(=O)NC(C)(CC)c3nc(C)cs3)cc2c1 (stereo not drawn) [Compound 20] | ≥ 80 | ≥ 80 | ≥ 80 | ≥ 80 | ≥ 80 | 120
10 | C#Cc1cnc2c(C)cc(OC(SC)C(=O)NCc3nc(C)cs3)cc2c1 (stereo not drawn) [Compound 24] | ≥ 80 | ≥ 80 | ≥ 80 | ≥ 80 | ≥ 80 | 148
11 | C#Cc1cnc2ccc(OC(SC)C(=O)NC(C)(C)c3nccs3)cc2c1 (stereo not drawn) [Compound 32] | ≥ 80 | ≥ 80 | ≥ 80 | ≥ 80 | ≥ 80 | 123
12 | C=Cc1cnc2c(C)cc(OC(OC)C(=O)NC(C)(C)c3nc(C)cs3)cc2c1 (stereo not drawn) [Compound 135] | ≥ 80 | ≥ 80 | ≥ 80 | ≥ 80 | ≥ 80 | 139
